# Measurements taken from US8586533B2, “Treatment of early-stage osteoarthritis” (Kaohsiung Medical University, priority 2008, dated 2013).
# What was measured:
# Assay type in all cases: cell-based
# [1] = system: human articular chondrocytes; experiment: Quantitative real-time PCR of mRNA levels in azaC-induced terminal differentiation culture model; settings: azaC group
# Experimental: Chondrocyte cultures were divided into 4 groups. […] Louis, Mo.) for 48 hours.
# [2] = system: human articular chondrocytes; experiment: Dimethylmethylene blue (DMMB) assay of GAG levels in chondrocyte cultures; settings: azaC group, 3 and 7 days after azaC induction, P<0.01
# Experimental: (§1) Chondrocyte cultures were divided into 4 groups.
# Alginate beads were dissolved as described above and further digested by papain (300 μg/ml) at 60° C. for 18 hours. The levels of DNA and sulfated glycosaminoglycan (GAG) in the samples were quantified using Hoechst 33258 dye and 1,9-dimethylmethylene blue dye, respectively. A standard curve for the DMMB assay was generated using aqueous chondroitin sulfate C solution (Sigma-Aldrich, St. Louis, Mo.) at concentrations ranging from […].
# [3] = system: human articular chondrocytes; experiment: TUNEL staining, rate of apoptosis in chondrocyte cultures; settings: azaC cultures, 14 days, P<0.01
# Experimental: as §1
# We measured apoptotic cells using the TUNEL (terminal deoxy-nucleotidyl transferase mediated dUTP nick end labeling) staining method using the In Situ Cell Death Detection Kit, TMR red (Roche, Mannheim, Germany). Following the manufacturer's guidelines, cells were fixed with 4% paraformaldehyde in phosphate buffered saline (PBS) at a cell density of 1×10^6/ml and incubated at room temperature for 10 minutes, and then settled on a slide by centrifugation at a speed of 2,000 rpm for 5 minutes using a cytospin (Cytospin 3; Shandon, Cheshire, UK). Slides were rinsed twice with PBS, and the cells were permeabilized by incubating in permeabilization solution (0.1% Triton X-100 in 0.1% sodium citrate) for 2 minutes on ice. The TUNEL reaction mixture containing terminal deoxynucleotidyl transferase and rhodamine (the labeling dye) was added to the slides and incubated at 37° C. in a humidified chamber in the dark for 60 minutes. The reaction was stopped by a blocking buffer (0.1% Triton X-100/0.5% bovine serum albumin in PBS). Cells were counterstained by 4′,6-diamidino-2-phenylindole (DAPI). The slides were observed under a fluorescence microscope with an excitation wavelength of 580 nm for rhodamine and 365 nm for DAPI. Cell nuclei were stained blue by DAPI, and only apoptotic cells were stained red by rhodamine. Stained cells were counted in 5 microscopic fields (1.566 mm^2/field) on each slide. Data were analyzed using Image-Pro Plus analysis software (Media Cybernetics, Silver Spring, Md.). The rate of apoptosis in chondrocytes was defined as the ratio of red-stained cells (apoptotic cells) to blue-stained cells (total cells).
# By using TUNEL staining, the rate of apoptosis in human articular chondrocyte cultures in the control, azaC, and azaC plus PTH groups were compared after 14 days of PTH(1-34) treatment (for the azaC plus PTH group).
# [4] = 7 and 10 days after azaC induction, P<0.01
# [5] = after 3 days of azaC induction, P<0.01
# [6] = after 7 days of azaC induction, P<0.05
compound,measurement,setting,value
"Nc1ncn([C@@H]2O[C@H](CO)[C@@H](O)[C@H]2O)c(=O)n1 [azaC, 5-azacytidine]",ALP mRNA level,[1]; [4],5.3-10.9 times that of control
same,Col10a1 mRNA level,[1]; [4],2.3-2.4 times that of control
same,Bax expression,"[1]; 14 days after azaC induction, P<0.01",2.1 times that of control
same,aggrecan mRNA level,"[1]; after 3 days of azaC induction (15 μg/ml, 48 hours), P<0.05",56 % of control
same,Col2a1 mRNA level,[1]; [5],46.3 % of control
same,IHH expression,[1]; [5],6.5 times that of control
same,Bcl-2 mRNA level,"[1]; after 3 days, P<0.05",3.2 times that of control
same,aggrecan mRNA level,"[1]; after 7 days of azaC induction, P<0.01",31 % of control
same,Col2a1 mRNA level,[1]; [6],64.8 % of control
same,IHH expression,[1]; [6],2.6 times that of control
same,IHH expression,"[1]; after 10 days of azaC induction, P<0.05",2.7 times that of control
same,Bcl-2 mRNA level,"[1]; after 10 days, P<0.01",4.7 times that of control
same,GAG levels versus control,[2],significantly lower
same,rate of apoptosis versus control cultures,[3],4.8 fold increase
